# Results taken from patent US7504384B2 (priority 2000, dated 2009).
# System: Guinea pig tracheal rings
# Assay: Inhibition of tracheal ring contraction
# Settings: stimulant Histamine (20 μM); Lipid-conjugate 15 μM
# Experimental: A muscle preparation (tracheal rings) was isolated from rats (Experiments 3.1-3.3) and from guinea pigs (Experiments 3.4-3.5). Muscle contraction was measured by attachment of the muscle to a pressure transducer, which works much like a spring. Administration of asthmatogenic substances such as endothelin-1 (ET) and acetylcholine (AcCh) induces muscle contraction. Endothelins are released upon vascular endothelial injury, and they activate macrophages and act as strong chemo-attractants for circulating monocytes. Endothelins affect vascular smooth muscle fibroblast proliferation; help regulate vascular, airway, and intestinal smooth muscle tone; increase the activity of bone alkaline phosphatase; stimulate release of atrial natriuretic peptide (ANP) from atrial cardiocytes; inhibit the release of renin from glomeruli and modulate norepinephrine at sympathetic nerve termini. Opposing vasomotor effects are regulated through the binding of distinct endothelin receptors for vasoconstriction and vasodilation. Endothelins have been linked to atherosclerosis and various cardiovascular disease states. ET-1 is important in congestive heart failure, renal failure, pulmonary hypertension, hyperlipidemia and metastatic prostate cancer. On the other hand, AcCh is one of the three main receptors on the bronchi of the lungs, which are basically tubes with muscular walls. Stimulation of bronchial AcCh receptor induces muscle contraction and decreased airflow through the bronchi. Thus, ET and AcCh were used to experimentally induce muscle contraction in the lungs as a model of obstructive respiratory disorders.
# Experiment 3.4: Guinea pig tracheal rings (in a linear array), immersed in a ringer bath, were connected to an apparatus measuring the length of the ring chain. […] Human airways have both Histamine (H)-1 and H2 receptors. H1 receptors, which mediate bronchoconstriction, predominate. Histamine application in experimental models produces signs and symptoms of asthma, such as narrowing of the airways, mucus secretion, wheezing, and coughing.
substance,measurement,value
dipalmitoyl-phosphatidyl-ethanolamine conjugated to heparin [Compound XXIV],% Inhibition of tracheal ring contraction,56 ± 0.05%
